# Measured values from patent US9556229B2, “Modification of peptides using a bis(thioether)arylbridge approach” (priority 2012, dated 2017).
# Starred links: 1 amine or outer side, 2 acyl side, 3 side chain; linkers in the order of their positions; H or OH if unused. Positions of bridges follow the written chain, without caps; N, C: chain ends. Non-standard residues stand in square brackets, D forms with d. Residues, ends and D or L forms follow the SMILES beside them. ξ: configuration not given here. *: point of attachment. Ala(9-anthryl) = N[C@@H](Cc1c2ccccc2cc2ccccc12)C(=O)O; Pro(4R-Bn) = O=C(O)[C@@H]1C[C@@H](Cc2ccccc2)CN1; Bip = N[C@@H](Cc1ccc(-c2ccccc2)cc1)C(=O)O; Dip = N[C@H](C(=O)O)C(c1ccccc1)c1ccccc1; 1Nal = N[C@@H](Cc1cccc2ccccc12)C(=O)O; 2Nal = N[C@@H](Cc1ccc2ccccc2c1)C(=O)O; mXylylene = c1cc(C[*:1])cc(C[*:2])c1; oXylylene = c1ccc(C[*:2])c(C[*:1])c1; NMePhg = CN[C@H](C(=O)O)c1ccccc1; Tic = O=C(O)[C@@H]1Cc2ccccc2CN1; Cha = N[C@@H](CC1CCCCC1)C(=O)O; Cysteamide = C(CS[*:3])N[*:1]; Chg = N[C@H](C(=O)O)C1CCCCC1; Phg = N[C@H](C(=O)O)c1ccccc1; Tle = CC(C)(C)[C@H](N)C(=O)O; Nicotinoyl = O=C(c1cccnc1)*; ξDisc = O=C(O)C1NCc2ccccc21; NMeA = CN[C@@H](C)C(=O)O
# Key:
# [1] = system: HCT116 colorectal cancer cells
# [2] = system: MCF-7 breast cancer cell line; experiment: Cell viability, MCF-7, PrestoBlue assay; assay type: cell-based; conditions: NA = not active
# Description: To test our theory we decided to focus on Smac multimers. First, we synthesized a small library of Smac compounds (see, Tables 3 and 4) varying in position 4 substituents having general structure N-MeAla-Tle-4-(trans-Bn)-Pro-Xaa-NHCH2CH2—SH (SEQ ID NO:38), which were tested in vitro using MDA-MB-231 and MCF-7 breast cancer cell lines and PrestoBlue™ assay (Invitrogen).
# [3] = system: MDA-MB-231 breast cancer cell line
compound,measurement,setting,value
CC(C)C[C@H](NC(=O)[C@H](CCCNC(=N)N)NC(=O)[C@@H]1CSCc2cccc(c2)CSC[C@H](NC(=O)[C@H](Cc2ccccc2)NC(=O)[C@H](CCCNC(=N)N)NC(=O)c2cccnc2)C(=O)N[C@@H](CCCNC(=N)N)C(=O)N[C@@H](Cc2ccc(O)cc2)C(=O)N[C@@H](Cc2c[nH]c3ccccc23)C(=O)N1)C(=O)N[C@@H](CCCNC(=N)N)C(=O)N1CCC[C@H]1C(N)=O [ArB15GNicm] (Nicotinoyl-RFCRYWCRLRP-NH2; linker 3-7 via mXylylene),EC50,[1],126 µM
"CN[C@@H](C)C(=O)N[C@H](C(=O)N1C[C@H](Cc2ccccc2)C[C@H]1C(=O)N[C@@H](Cc1ccc2ccccc2c1)C(=O)NCCS)C(C)(C)C [SMAC15, N^MeAla-Tle-(4-Bzl)Pro-^2Nal-NHCH2CH2SH] (H-[NMeA][Tle][Pro(4R-Bn)][2Nal]-Cysteamide; N-terminus assumed)",EC50,[2],10.5 ± 0.6 µM
same,EC50,[3],9.4 ± 0.5 µM
"CN[C@@H](C)C(=O)N[C@H](C(=O)N1C[C@H](Cc2ccccc2)C[C@H]1C(=O)N[C@@H](Cc1ccc(-c2ccccc2)cc1)C(=O)NCCSCc1ccc(CSCCNC(=O)[C@H](Cc2ccc(-c3ccccc3)cc2)NC(=O)[C@@H]2C[C@@H](Cc3ccccc3)CN2C(=O)[C@@H](NC(=O)[C@H](C)NC)C(C)(C)C)cc1)C(C)(C)C [SMAC17-2X, (N^MeAla-Tle-(4-Bzl)Pro-Bip-NHCH2CH2S)2—(CH2)2Ph]",EC50,[2],1.7 ± 0.4 µM
CC(C)C[C@H](NC(=O)[C@H](CCCNC(=N)N)NC(=O)[C@H](CS)NC(=O)[C@H](Cc1c[nH]c2ccccc12)NC(=O)[C@H](Cc1ccc(O)cc1)NC(=O)[C@H](CCCNC(=N)N)NC(=O)[C@H](CS)NC(=O)[C@H](Cc1ccccc1)NC(=O)[C@@H](N)CCCNC(=N)N)C(=O)N[C@@H](CCCNC(=N)N)C(=O)N1CCC[C@H]1C(N)=O [ArB15F/Gr] (H-RFCRYWCRLRP-NH2; N-terminus assumed),EC50,[1],> 250 µM
"CN[C@@H](C)C(=O)N[C@H](C(=O)N1C[C@H](Cc2ccccc2)C[C@H]1C(=O)N(C)[C@H](C(=O)NCCS)c1ccccc1)C(C)(C)C [SMAC2, N^MeAla-Tle-(4-Bzl)Pro-N^MePhg-NHCH2CH2SH] (H-[NMeA][Tle][Pro(4R-Bn)][NMePhg]-Cysteamide; N-terminus assumed)",EC50,[2],43.6 ± 1.6 µM
same,EC50,[3],23.8 ± 4.5 µM
"CN[C@@H](C)C(=O)N[C@H](C(=O)N1C[C@H](Cc2ccccc2)C[C@H]1C(=O)N[C@H](C(=O)NCCS)c1ccccc1)C(C)(C)C [SMAC1, N^MeAla-Tle-(4-Bzl)Pro-Phg-NHCH2CH2SH] (H-[NMeA][Tle][Pro(4R-Bn)][Phg]-Cysteamide; N-terminus assumed)",EC50,[2],31.2 ± 1.4 µM
same,EC50,[3],17.2 ± 6.4 µM
"CN[C@@H](C)C(=O)N[C@H](C(=O)N1C[C@H](Cc2ccccc2)C[C@H]1C(=O)NCc1ccc(CC(=O)NCCS)cc1)C(C)(C)C [SMAC3, N^MeAla-Tle-(4-Bzl)Pro-Amp-NHCH2CH2SH]",EC50,[3],14.3 ± 3.2 µM
CC(C)C[C@H](NC(=O)[C@H](CCCNC(=N)N)NC(=O)[C@@H]1CSCc2ccccc2CSC[C@H](NC(=O)[C@H](Cc2ccccc2)NC(=O)[C@H](CCCNC(=N)N)NC(=O)c2cccnc2)C(=O)N[C@@H](CCCNC(=N)N)C(=O)N[C@@H](Cc2ccc(O)cc2)C(=O)N[C@@H](Cc2c[nH]c3ccccc23)C(=O)N1)C(=O)N[C@@H](CCCNC(=N)N)C(=O)N1CCC[C@H]1C(N)=O [ArB15FNico] (Nicotinoyl-RFCRYWCRLRP-NH2; linker 3-7 via oXylylene),EC50,[1],189 µM
"CN[C@@H](C)C(=O)N[C@H](C(=O)N1C[C@H](Cc2ccccc2)C[C@H]1C(=O)N[C@@H](Cc1c(F)c(F)c(F)c(F)c1F)C(=O)NCCS)C(C)(C)C [SMAC9, N^MeAla-Tle-(4-Bzl)Pro-PhF-NHCH2CH2SH]",EC50,[2],19.8 ± 3 µM
same,EC50,[3],27 ± 3.2 µM
C[C@@H](O)[C@H](N)C(=O)N[C@@H](CO)C(=O)N[C@@H](Cc1ccccc1)C(=O)N[C@@H](CCCNC(=N)N)C(=O)N[C@@H](CCCNC(=N)N)C(=O)N[C@@H](Cc1ccc(O)cc1)C(=O)N[C@H]1CSCc2cccc(c2)CSC[C@@H](C(=O)N[C@@H](CO)C(=O)N2CCC[C@H]2C(N)=O)NC(=O)[C@H](CCCNC(=N)N)NC(=O)[C@H](CCCNC(=N)N)NC1=O [ArB14Dm],EC50,[1],118 µM
"CN[C@@H](C)C(=O)N[C@H](C(=O)N1C[C@H](Cc2ccccc2)C[C@H]1C(=O)N[C@@H](Cc1cccc2ccccc12)C(=O)NCCS)C(C)(C)C [SMAC14, N^MeAla-Tle-(4-Bzl)Pro-^1Na1-NHCH2CH2SH] (H-[NMeA][Tle][Pro(4R-Bn)][1Nal]-Cysteamide; N-terminus assumed)",EC50,[2],13.4 ± 0.5 µM
same,EC50,[3],4.5 ± 1.1 µM
"CN[C@@H](C)C(=O)N[C@H](C(=O)N1C[C@H](Cc2ccccc2)C[C@H]1C(=O)N1Cc2ccccc2C[C@H]1C(=O)NCCS)C(C)(C)C [SMAC11, N^MeAla-Tle-(4-Bzl)Pro-Tic-NHCH2CH2SH] (H-[NMeA][Tle][Pro(4R-Bn)][Tic]-Cysteamide; N-terminus assumed)",EC50,[2],5.3 ± 0.6 µM
same,EC50,[3],13.3 ± 1.3 µM
"CN[C@@H](C)C(=O)N[C@H](C(=O)N1C[C@H](Cc2ccccc2)C[C@H]1C(=O)NC(CC(=O)NCCS)c1cccc2ccccc12)C(C)(C)C (stereo partly drawn) [SMAC13, N^MeAla-Tle-(4-Bzl)Pro-bh^1NalGly-NHCH2CH2SH]",EC50,[2],12.3 ± 0.5 µM
same,EC50,[3],21.7 ± 1.3 µM
"CN[C@@H](C)C(=O)N[C@H](C(=O)N1C[C@H](Cc2ccccc2)C[C@H]1C(=O)N[C@H](C(=O)NCCS)C(c1ccccc1)c1ccccc1)C(C)(C)C [SMAC16, N^MeAla-Tle-(4-Bzl)Pro-Dpa-NHCH2CH2SH] (H-[NMeA][Tle][Pro(4R-Bn)][Dip]-Cysteamide; N-terminus assumed)",EC50,[2],11.3 ± 1.8 µM
same,EC50,[3],9.4 ± 0.6 µM
"CN[C@@H](C)C(=O)N[C@H](C(=O)N1C[C@H](Cc2ccccc2)C[C@H]1C(=O)N1c2ccccc2C[C@H]1C(=O)NCCS)C(C)(C)C [SMAC5, N^MeAla-Tle-(4-Bzl)Pro-Idc-NHCH2CH2SH]",EC50,[2],477 ± 48.4 µM
same,EC50,[3],68.3 ± 4 µM
"CN[C@@H](C)C(=O)N[C@H](C(=O)N1C[C@H](Cc2ccccc2)C[C@H]1C(=O)NC[C@H]1CC[C@H](C(=O)NCCS)CC1)C(C)(C)C [SMAC7, N^MeAla-Tle-(4-Bzl)Pro-Amc-NHCH2CH2SH]",EC50,[2],86.3 ± 10.5 µM
same,EC50,[3],91.8 ± 16.3 µM
"CN[C@@H](C)C(=O)N[C@H](C(=O)N1C[C@H](Cc2ccccc2)C[C@H]1C(=O)N1Cc2ccccc2C1C(=O)NCCS)C(C)(C)C (stereo partly drawn) [SMAC4, N^MeAla-Tle-(4-Bzl)Pro-Disc-NHCH2CH2SH] (H-[NMeA][Tle][Pro(4R-Bn)][ξDisc]-Cysteamide; N-terminus assumed)",EC50,[2],41.6 ± 3.7 µM
same,EC50,[3],47.1 ± 15.9 µM
"CN[C@@H](C)C(=O)N[C@H](C(=O)N1C[C@H](Cc2ccccc2)C[C@H]1C(=O)N[C@@H](Cc1cccc2ccccc12)C(=O)NCCSCc1cc(CSCCNC(=O)[C@H](Cc2cccc3ccccc23)NC(=O)[C@@H]2C[C@@H](Cc3ccccc3)CN2C(=O)[C@@H](NC(=O)[C@H](C)NC)C(C)(C)C)cc(CSCCNC(=O)[C@H](Cc2cccc3ccccc23)NC(=O)[C@@H]2C[C@@H](Cc3ccccc3)CN2C(=O)[C@@H](NC(=O)[C@H](C)NC)C(C)(C)C)c1)C(C)(C)C [SMAC14-3X, (N^MeAla-Tle-(4-Bzl)Pro-^1Nal-NHCH2CH2S)3—(CH2)3Ph]",EC50,[2],120 ± 8.4 µM
same,EC50,[3],7.2 ± 1.5 µM
"CN[C@@H](C)C(=O)N[C@H](C(=O)N1C[C@H](Cc2ccccc2)C[C@H]1C(=O)N[C@@H](Cc1cccc2ccccc12)C(=O)NCCSCc1ccc(CSCCNC(=O)[C@H](Cc2cccc3ccccc23)NC(=O)[C@@H]2C[C@@H](Cc3ccccc3)CN2C(=O)[C@@H](NC(=O)[C@H](C)NC)C(C)(C)C)cc1)C(C)(C)C [SMAC14-2X, (N^MeAla-Tle-(4-Bzl)Pro-^1Nal-NHCH2CH2S)2—(CH2)2Ph]",EC50,[2],3.5 ± 1.6 µM
"CN[C@@H](C)C(=O)N[C@H](C(=O)N1C[C@H](Cc2ccccc2)C[C@H]1C(=O)N[C@@H](Cc1ccc(-c2ccccc2)cc1)C(=O)NCCS)C(C)(C)C [SMAC17, N^MeAla-Tle-(4-Bzl)Pro-Bip-NHCH2CH2SH] (H-[NMeA][Tle][Pro(4R-Bn)][Bip]-Cysteamide; N-terminus assumed)",EC50,[2],5.7 ± 0.9 µM
same,EC50,[3],10.6 ± 0.9 µM
"CN[C@@H](C)C(=O)N[C@H](C(=O)N1C[C@H](Cc2ccccc2)C[C@H]1C(=O)N[C@@H](Cc1c[nH]c2ccccc12)C(=O)NCCS)C(C)(C)C [SMAC19, N^MeAla-Tle-(4-Bzl)Pro-Trp-NHCH2CH2SH] (H-[NMeA][Tle][Pro(4R-Bn)]W-Cysteamide; N-terminus assumed)",EC50,[2],27.6 ± 1.8 µM
same,EC50,[3],36.7 ± 3.2 µM
"CN[C@@H](C)C(=O)N[C@H](C(=O)N1C[C@H](Cc2ccccc2)C[C@H]1C(=O)N[C@H](CC(=O)NCCS)Cc1ccccc1)C(C)(C)C [SMAC10, N^MeAla-Tle-(4-Bzl)Pro-bhPhe-NHCH2CH2SH]",EC50,[2],23.9 ± 2.1 µM
same,EC50,[3],29.7 ± 3.3 µM
"CN[C@@H](C)C(=O)N[C@H](C(=O)N1C[C@H](Cc2ccccc2)C[C@H]1C(=O)N[C@@H](Cc1ccccc1)C(=O)NCCS)C(C)(C)C [SMAC8, N^MeAla-Tle-(4-Bzl)Pro-Phe-NHCH2CH2SH]",EC50,[2],33.3 ± 1.5 µM
same,EC50,[3],34.3 ± 6.7 µM
"CN[C@@H](C)C(=O)N[C@H](C(=O)N1C[C@H](Cc2ccccc2)C[C@H]1C(=O)N[C@@H](CC1CCCCC1)C(=O)NCCS)C(C)(C)C [SMAC12, N^MeAla-Tle-(4-Bzl)Pro-Cha-NHCH2CH2SH] (H-[NMeA][Tle][Pro(4R-Bn)][Cha]-Cysteamide; N-terminus assumed)",EC50,[2],21.2 ± 2.4 µM
same,EC50,[3],10.1 ± 2.6 µM
"CN[C@@H](C)C(=O)N[C@H](C(=O)N1C[C@H](Cc2ccccc2)C[C@H]1C(=O)N[C@@H](Cc1c2ccccc2cc2ccccc12)C(=O)NCCS)C(C)(C)C [SMAC18, N^MeAla-Tle-(4-Bzl)Pro-Ant-NHCH2CH2SH] (H-[NMeA][Tle][Pro(4R-Bn)][Ala(9-anthryl)]-Cysteamide)",EC50,[3],17.3 ± 1 µM
"CN[C@@H](C)C(=O)N[C@H](C(=O)N1C[C@H](Cc2ccccc2)C[C@H]1C(=O)N[C@H](C(=O)NCCS)C1CCCCC1)C(C)(C)C [SMAC6, N^MeAla-Tle-(4-Bzl)Pro-Chg-NHCH2CH2SH] (H-[NMeA][Tle][Pro(4R-Bn)][Chg]-Cysteamide; N-terminus assumed)",EC50,[2],31.2 ± 2.1 µM
same,EC50,[3],9.8 ± 3.1 µM
